From BindingDB's records for doi:10.1021/jm00008a002 (Warner-Lambert, 1995)

Target: Endothelin-1 receptor (Oryctolagus cuniculus)
Assay: Tested for antagonistic activity against Endothelin A receptor in the rabbit renal artery vascular smooth muscle cells.

| SMILES | IC50 |
| --- | --- |
| COc1ccc(CC2=C(c3ccc(Cl)c(Cl)c3)C(=O)OC2(O)c2ccc(OC)cc2)cc1 (configuration not stated) [3-(3,4-Dichloro-phenyl)-5-hydroxy-4-(4-methoxy-benzyl)-5-(4-methoxy-phenyl)-5H-furan-2-one] | 310 nM |
| COc1ccc(C2(O)OC(=O)C(c3ccc4c(c3)OCO4)=C2Cc2ccc(OC)c(C)c2)cc1 (configuration not stated) [3-Benzo[1,3]dioxol-5-yl-5-hydroxy-4-(4-methoxy-3-methyl-benzyl)-5-(4-methoxy-phenyl)-5H-furan-2-one] | 6 nM |
